SMILES strings stand for the structures. Read-outs that look alike come from different tables or passages of the source.

We go through 1 molecule from article PMC9401487 (Clinical Cancer Research, 2021).

For series [1], the system named is TP53-mutant triple-negative breast cancer PDX. Conditions: cited from earlier work.
The test system of a further series is advanced solid tumors. The experiment in a line: Preliminary antitumor activity, tumor response by RECIST v1.1. The format is in vivo, human.
For another series, the system named is ATR. The settings on record: read-out: IC90 for ATR inhibition in cells; cited from earlier work.
A short description of series [2]: Clinical plasma pharmacokinetics of ceralasertib. It counts as in vivo. The settings on record: human, oral.

For `C[C@@H]1COCCN1c1cc(C2([S@](C)(=N)=O)CC2)nc(-c2cc[nH]c3nccc2-3)n1` [ceralasertib], the Tumor control entry in series [1] (carboplatin dosed concurrently with ceralasertib on day 2 or 3) is “growth inhibition rather than tumor control”. Besides, the values for the Antitumor efficacy result in series [1] (ceralasertib dosed 2 days after carboplatin) and in series [1] (ceralasertib dosed 3 days after carboplatin) were “tumor control” and “tumor regression”, respectively. Further, the “Best response of progressive disease, patients” value in the series on advanced solid tumors (12 of 34 response-evaluable patients) was found to be 35%. The “Best RECIST v1.1 response of stable disease (≥35 days), patients” value in the series on advanced solid tumors (18 of 34 response-evaluable patients, including the two unconfirmed PRs) was 53%. Moreover, the “Unconfirmed RECIST v1.1 PRs” value in the series on advanced solid tumors (evaluable-for-response set n=34, 1 in cohort 3, 1 in cohort 7) is reported as 2 patients. In addition, the “Confirmed RECIST v1.1 partial responses” value in the series with advanced solid tumors (evaluable-for-response set n=34, both in cohort 6) came out at 2 patients. Besides, in the series on advanced solid tumors (one patient, cohort 7, clear cell ovarian cancer, two cycles), the “Tumor reduction (unconfirmed response)” value came out at 43%. In the series on ATR, the IC90 (commonly the concentration at which the effect reaches the 90% level) is […]. Moreover, the half-life (as a rule, the time needed for the level to fall by half in the phase considered) lay in the range of 8.14 to 10.6 h in series [2] (mean half-life, administered alone); 5.14 to 7.22 h in series [2] (mean half-life, in combination with carboplatin); 8 to 11 h in series [2] (terminal plasma half-life, abstract summary). Also, the Tmax (in general, the time from dosing to the highest level) in series [2] (median tmax, in combination with carboplatin) was 1.05 to 1.07 h; in series [2] (median tmax, single dose, alone, across dose groups), 1 to 1.03 h; in series [2] (tmax, abstract summary), approximately 1 h.
